In patent US7361660B2, “Chemical compounds” (AstraZeneca AB, priority 2001, dated 2008):

Tested on: peripheral blood mononuclear cell (PBMC)
Test: Inhibition of PMA/ionomycin-stimulated peripheral blood mononuclear cell proliferation
Format: cell-based
Details: human PBMC from a single donor, PMA 0.5 ng/ml and ionomycin 500 ng/ml, 72 hours, 3H-Thymidine incorporation; read-out: IA50 (the source's name)
Procedure: The ability of compounds which can inhibit PMA/ionomycin-stimulated peripheral blood mononuclear cell proliferation can be assessed, for example using the procedure set out below:
Inhibition of PMA/Ionomycin-Stimulated Peripheral Blood Mononuclear Cell Proliferation
The assay for Phorbol 12-myristate 13-Acetate (PMA)/ionomycin-stimulated peripheral blood mononuclear cell (PBMC) proliferation was performed in 96-well flat bottomed microtitre plates. Compounds were prepared as 10 mM stock solutions in dimethyl sulfoxide. A 50-fold dilution of this was prepared in RPMI culture medium and serial diutions were prepared from this solution. 10 μl of the 50-fold diluted stock, or dilutions of it, were added to the well to give concentrations in the assay starting at […] and going down. Into each well was placed 1×10^5 PBMC, prepared from human peripheral blood from a single donor, in RPMI1640 medium supplemented with 10% human serum, 2 mM glutamine and penicillin/streptomycin. PMA (0.5 ng/ml final concentration) and ionomycin (500 ng/ml final concentration) were added to these cells in supplemented RPMI1640 medium (as above) so that the final volume of the assay was 0.2 ml. […] The level of radioactivity incorporated by the cells was then determined and this is a measure of proliferation.

**Q.** Which IC50 does the source give for `CON(C)C(=O)c1c(Cc2ccnc3ccccc23)sc2c1c(=O)n(C)c(=O)n2CC(C)C` [Example 2, 1,2,3,4-Tetrahydro-N-methoxy-N,3-dimethyl-1-(2-methylpropyl)-2,4-dioxo-6-(4-quinolinylmethyl)thieno[2,3-d]pyrimidine-5-carboxamide] here?
**A.** The IC50 was 5.88 nM.

**Q.** Which IC50 does the source give for `CCCn1c(=O)n(C)c(=O)c2c(C(=O)N(C)OC)c(Cn3c(C)nc(Cl)c3Cl)sc21` [Example 7, 6-[4,5-Dichloro-2-methyl-1H-imidazol-1-ylmethyl]-1,2,3,4-tetrahydro-N-methoxy-N,3-dimethyl-2,4-dioxo-1-propyl-thieno[2,3-d]pyrimidine-5-carboxamide] here?
**A.** The IC50 was 34.6 nM.
